Test results from patent US7064120B2, “Tricyclic pyridyl carboxamides and derivatives thereof tocolytic oxytocin receptor antagonists” (Wyeth, priority 2001, dated 2006).

Biological target: T1, human vasopressin V1a receptor subtype (Homo sapiens, UniProt P37288)
T1 construct: host or cells: CHO cells, stably transfected (pZeoSV vector for the Thibonnier line)
Test: Vasopressin binding in CHO cell membranes expressing human vasopressin V1a subtype receptors ([3H]Manning ligand radioligand binding)
Details: for inhibition at 0.1 µM: 100 nM; for IC50: value in parentheses
Procedure, shortened: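 Radioligand displacement: [3H]Manning ligand, added as 8 nM stock, binds human V1a receptor in CHO-cell membranes (25–50 μg/well), pH 7.4 Tris buffer with protease inhibitors, 60 min room temperature. Bound counts collected by filter harvesting; values are percent inhibition at stated concentration or nanomolar IC50.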

T1 sequence (P37288 whole entry): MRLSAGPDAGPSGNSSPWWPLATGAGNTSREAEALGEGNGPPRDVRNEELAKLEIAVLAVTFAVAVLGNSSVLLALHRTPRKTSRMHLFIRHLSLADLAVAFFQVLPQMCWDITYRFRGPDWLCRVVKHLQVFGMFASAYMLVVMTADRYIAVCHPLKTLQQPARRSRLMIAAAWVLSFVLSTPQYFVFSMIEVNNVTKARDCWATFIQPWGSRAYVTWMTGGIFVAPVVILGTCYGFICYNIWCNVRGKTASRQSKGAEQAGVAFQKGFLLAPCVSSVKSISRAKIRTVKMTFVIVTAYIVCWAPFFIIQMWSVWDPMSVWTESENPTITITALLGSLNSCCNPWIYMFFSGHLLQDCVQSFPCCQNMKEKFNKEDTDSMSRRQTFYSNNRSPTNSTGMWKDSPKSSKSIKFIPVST

| inhibition at 0.1 µM [%] | IC50 [nM] | SMILES |
| --- | --- | --- |
| 6 | – | COc1cc(C(=O)N2Cc3ccc(C(=O)N4CCN(c5ccccn5)CC4)n3Cc3ccccc32)ccc1-c1ccccc1C [Example 80, {10-[(2-Methoxy-2′-methyl-[1,1′-biphenyl]-4-yl)carbonyl]-10,11-dihydro-5H-pyrrolo[2,1-c][1,4]benzodiazepin-3-yl}[4-(2-pyridinyl)-1-piperazinyl]methanone] |
| -6 | – | COc1cc(-c2ccccc2C)c(Cl)cc1C(=O)N1Cc2ccc(C(=O)N3CCN(c4ccccn4)CC3)n2Cc2ccccc21 [Example 81, {10-[(6-Chloro-3-methoxy-2′-methyl-[1,1′-biphenyl]-4-yl)carbonyl]-10,11-dihydro-5H-pyrrolo[2,1-c][1,4]benzodiazepin-3-yl}[4-(2-pyridinyl)-1-piperazinyl]methanone] |
| -1 | – | COc1cccc(-c2cc(OC)c(C(=O)N3Cc4ccc(C(=O)N5CCN(c6ccccn6)CC5)n4Cc4ccccc43)cc2Cl)c1 [Example 82, {10-[(6-Chloro-3,3′-dimethoxy-[1,1′-biphenyl]-4-yl)carbonyl]-10,11-dihydro-5H-pyrrolo[2,1-c][1,4]benzodiazepin-3-yl}[4-(2-pyridinyl)-1-piperazinyl]methanone] |
| 3 | – | COc1ccccc1-c1ccc(C(=O)N2Cc3ccc(C(=O)N4CCN(c5ccccn5)CC4)n3Cc3ccccc32)cc1OC [Example 84, {10-[(2,2′-Dimethoxy-[1,1′-biphenyl]-4-yl)carbonyl]-10,11-dihydro-5H-pyrrolo[2,1-c][1,4]benzodiazepin-3-yl}[4-(2-pyridinyl)-1-piperazinyl]methanone] |
| -5 | – | COc1cccc(-c2ccc(C(=O)N3Cc4ccc(C(=O)N5CCN(c6ccccn6)CC5)n4Cc4ccccc43)cc2OC)c1 [Example 85, {10-[(2,3′-Dimethoxy-[1,1′-biphenyl]-4-yl)carbonyl]-10,11-dihydro-5H-pyrrolo[2,1-c][1,4]benzodiazepin-3-yl}[4-(2-pyridinyl)-1-piperazinyl]methanone] |
| 1 | – | O=C(c1ccc2n1Cc1ccccc1N(C(=O)c1ccc(-c3cccc4ccccc34)cc1Cl)C2)N1CCN(c2ccccn2)CC1 [Example 86, {10-[2-Chloro-4-(naphthalen-1-yl)benzoyl]-10,11-dihydro-5H-pyrrolo[2,1-c][1,4]benzodiazepin-3-yl}[4-(2-pyridinyl)-1-piperazinyl]methanone] |
| 1 | – | Cc1cc(C(=O)N2Cc3ccc(C(=O)N4CCN(c5ccccn5)CC4)n3Cc3ccccc32)ccc1-c1ccccc1C(F)(F)F [Example 87, (10-{[2-Methyl-2′-trifluoromethyl-[1,1′-biphenyl]-4-yl]carbonyl}-10,11-dihydro-5H-pyrrolo[2,1-c][1,4]benzodiazepin-3-yl)[4-(2-pyridinyl)-1-piperazinyl]methanone] |
| 8 | – | COc1ccccc1-c1ccc(C(=O)N2Cc3ccc(C(=O)NCc4ccncc4)n3Cc3ccccc32)cc1C [Example 88, 10-[(2′-Methoxy-2-methyl-[1,1′-biphenyl]-4-yl)carbonyl]-N-(4-pyridinylmethyl)-10,11-dihydro-5H-pyrrolo[2,1-c][1,4]benzodiazepine-3-carboxamide] |
| 29 | – | Cc1ccccc1-c1ccc(C(=O)N2Cc3ccc(C(=O)NCc4ccncc4)n3Cc3ccccc32)cc1C [Example 89, 10-[(2,2′-Dimethyl-[1,1′-biphenyl]-4-yl)carbonyl]-N-(4-pyridinylmethyl)-10,11-dihydro-5H-pyrrolo[2,1-c][1,4]benzodiazepine-3-carboxamide] |
| 14 | – | COc1cccc(-c2ccc(C(=O)N3Cc4ccc(C(=O)NCc5ccncc5)n4Cc4ccccc43)cc2C)c1 [Example 90, 10-[(3′-Methoxy-2-methyl-[1,1′-biphenyl]-4-yl)carbonyl]-N-(4-pyridinylmethyl)-10,11-dihydro-5H-pyrrolo[2,1-c][1,4]benzodiazepine-3-carboxamide] |
| 11 | – | COc1ccccc1-c1ccc(C(=O)N2Cc3ccc(C(=O)NCc4ccncc4)n3Cc3ccccc32)cc1 [Example 91, 10-[(2′-Methoxy-[1,1′-biphenyl]-4-yl)carbonyl]-N-(4-pyridinylmethyl)-10,11-dihydro-5H-pyrrolo[2,1-c][1,4]benzodiazepine-3-carboxamide] |
| 21 | – | Cc1ccccc1-c1ccc(C(=O)N2Cc3ccc(C(=O)NCc4ccncc4)n3Cc3ccccc32)cc1 [Example 92, 10-[(2′-Methyl-[1,1′-biphenyl]-4-yl)carbonyl]-N-(4-pyridinylmethyl)-10,11-dihydro-5H-pyrrolo[2,1-c][1,4]benzodiazepine-3-carboxamide] |
| 50 | – | COc1cc(C(=O)N2Cc3ccc(C(=O)NCc4ccncc4)n3Cc3ccccc32)ccc1-c1ccccc1C [Example 93, 10-[(2-Methoxy-2′-methyl-[1,1′-biphenyl]-4-yl)carbonyl]-N-(4-pyridinylmethyl)-10,11-dihydro-5H-pyrrolo[2,1-c][1,4]benzodiazepine-3-carboxamide] |
| 0 | – | COc1cc(-c2ccccc2C)c(Cl)cc1C(=O)N1Cc2ccc(C(=O)NCc3ccncc3)n2Cc2ccccc21 [Example 94, 10-[(6-Chloro-3-methoxy-2′-methyl-[1,1′-biphenyl]-4-yl)carbonyl]-N-(4-pyridinylmethyl)-10,11-dihydro-5H-pyrrolo[2,1-c][1,4]benzodiazepine-3-carboxamide] |
| 1 | – | COc1cccc(-c2cc(OC)c(C(=O)N3Cc4ccc(C(=O)NCc5ccncc5)n4Cc4ccccc43)cc2Cl)c1 [Example 95, 10-[(6-Chloro-3,3′-dimethoxy-[1,1′-biphenyl]-4-yl)carbonyl]-N-(4-pyridinylmethyl)-10,11-dihydro-5H-pyrrolo[2,1-c][1,4]benzodiazepine-3-carboxamide] |
| 7 | – | COc1cc(C(=O)N2Cc3ccc(C(=O)NCc4ccncc4)n3Cc3ccccc32)ccc1-c1cccc2ccccc12 [Example 96, 10-[3-Methoxy-4-(naphthalen-1-yl)benzoyl]-N-(4-pyridinylmethyl)-10,11-dihydro-5H-pyrrolo[2,1-c][1,4]benzodiazepine-3-carboxamide] |
| 4 | – | COc1ccccc1-c1ccc(C(=O)N2Cc3ccc(C(=O)NCc4ccncc4)n3Cc3ccccc32)cc1OC [Example 97, 10-[(2,2′-Dimethoxy-[1,1′-biphenyl]-4-yl)carbonyl]-N-(4-pyridinylmethyl)-10,11-dihydro-5H-pyrrolo[2,1-c][1,4]benzodiazepine-3-carboxamide] |
| -7 | – | O=C(NCc1ccncc1)c1ccc2n1Cc1ccccc1N(C(=O)c1ccc(-c3cccc4ccccc34)cc1Cl)C2 [Example 99, 10-[2-Chloro-4-(naphthalen-1-yl)benzoyl]-N-(4-pyridinylmethyl)-10,11-dihydro-5H-pyrrolo[2,1-c][1,4]benzodiazepine-3-carboxamide] |
| 10 | – | Cc1cc(C(=O)N2Cc3ccc(C(=O)NCc4ccncc4)n3Cc3ccccc32)ccc1-c1ccccc1C(F)(F)F [Example 100, 10-{[2-Methyl-2′-trifluoromethyl-[1,1′-biphenyl]-4-yl]carbonyl}-N-(4-pyridinylmethyl)-10,11-dihydro-5H-pyrrolo[2,1-c][1,4]benzodiazepine-3-carboxamide] |
| – | 355 | COc1ccccc1-c1ccc(C(=O)N2Cc3ccc(C(=O)N(C)Cc4cccnc4)n3Cc3ccccc32)cc1C [Example 101, 10-[(2′-Methoxy-2-methyl-[1,1′-biphenyl]-4-yl)carbonyl]-N-methyl-N-(3-pyridinylmethyl)-10,11-dihydro-5H-pyrrolo[2,1-c][1,4]benzodiazepine-3-carboxamide] |
| – | 275 | COc1cccc(-c2ccc(C(=O)N3Cc4ccc(C(=O)N(C)Cc5cccnc5)n4Cc4ccccc43)cc2C)c1 [Example 102, 10-[(3′-Methoxy-2-methyl-[1,1′-biphenyl]4-yl)carbonyl]-N-methyl-N-(3-pyridinyImethyl)-10,11-dihydro-5H-pyrrolo[2,1-c][1,4]benzodiazepine-3-carboxamide] |
| – | 449 | COc1ccccc1-c1ccc(C(=O)N2Cc3ccc(C(=O)N(C)Cc4cccnc4)n3Cc3ccccc32)cc1OC [Example 103, 10-[(2,2′-Dimethoxy-[1,1′-biphenyl]-4-yl)carbonyl]-N-methyl-N-(3-pyridinylmethyl)-10,11-dihydro-5H-pyrrolo[2,1-c][1,4]benzodiazepine-3-carboxamide] |
| 32 | – | COc1ccccc1-c1ccc(C(=O)N2Cc3ccc(C(=O)N(C)Cc4cccnc4)n3Cc3ccccc32)cc1 [Example 104, 10-[(2′-Methoxy-[1,1′-biphenyl]-4-yl)carbonyl]-N-methyl-N-(3-pyridinylmethyl)-10,11-dihydro-5H-pyrrolo[2,1-c][1,4]benzodiazepine-3-carboxamide] |
| 0 | – | Cc1ccccc1-c1ccc(C(=O)N2Cc3ccc(C(=O)N(C)Cc4cccnc4)n3Cc3ccccc32)cc1 [Example 105, N-Methyl-10-[(2′-methyl-[1,1′-biphenyl]-4-yl)carbonyl]-N-(3-pyridinylmethyl)-10,11-dihydro-5H-pyrrolo[2,1-c][1,4]benzodiazepine-3-carboxamide] |
| – | 1600 | Cc1cc(C(=O)N2Cc3ccc(C(=O)N(C)Cc4cccnc4)n3Cc3ccccc32)ccc1-c1ccccc1C(F)(F)F [Example 112, N-Methyl-10-{[2-methyl-2′-trifluoromethyl-[1,1′-biphenyl]-4-yl]carbonyl}-N-(3-pyridinylmethyl)-10,11-dihydro-5H-pyrrolo[2,1-c][1,4]benzodiazepine-3-carboxamide] |
| – | 365 | COc1ccccc1-c1ccc(C(=O)N2Cc3ccc(C(=O)N4CCN(c5ccncc5)CC4)n3Cc3ccccc32)cc1C [Example 113, {10-[(2′-Methoxy-2-methyl-[1,1′-biphenyl]-4-yl)carbonyl]-10,11-dihydro-5H-pyrrolo[2,1-c][1,4]benzodiazepin-3-yl}[4-(4-pyridinyl)-1-piperazinyl]methanone] |
